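All cell lines were grown in 96-well plates and treated with compound for 48 hours. GI50 marks 50% less growth.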 Activity calls are given as the source filed them. No stated cut-off is given here; in the data, active = GI50 up to about 1.1 µM and inactive = higher. Where a SMILES comes first, the peptide text is derived from it. [ ]: non-standard residue; d: D form. Phe(F5) = N[CH](Cc1c(F)c(F)c(F)c(F)c1F)C(=O)O
Key:
Experiment in all cases: NCI tumour cell line growth inhibition, 48 h
786-0 = tested on: 786-0
A498 = tested on: A498
A549 = tested on: A549
ACHN = tested on: ACHN
CAKI-1 = tested on: CAKI-1
CCRF-CEM = tested on: CCRF-CEM
COLO 205 = tested on: COLO 205
DLD-1 = tested on: DLD-1
DMS-114 = tested on: DMS-114
DMS-273 = tested on: DMS-273
DU-145 = tested on: DU-145
EKVX = tested on: EKVX
HCC 2998 = tested on: HCC 2998
HCT-116 = tested on: HCT-116
HCT-15 = tested on: HCT-15
HL-60 = tested on: HL-60
HOP-18 = tested on: HOP-18
HOP-62 = tested on: HOP-62
HT-29 = tested on: HT-29
Hs-578T = tested on: Hs-578T
IGROV-1 = tested on: IGROV-1
K562 = tested on: K562
KM-20L2 = tested on: KM-20L2
KM12 = tested on: KM12
LOX IMVI = tested on: LOX IMVI
LXFL 529 = tested on: LXFL 529
M14 = tested on: M14
M19-MEL = tested on: M19-MEL
MCF7 = tested on: MCF7
MDA-MB-231 = tested on: MDA-MB-231
MDA-MB-435 = tested on: MDA-MB-435
MDA-N = tested on: MDA-N
MOLT-4 = tested on: MOLT-4
Malme-3M = tested on: Malme-3M
NCI-H226 = tested on: NCI-H226
NCI-H23 = tested on: NCI-H23
NCI-H460 = tested on: NCI-H460
NCI-H522 = tested on: NCI-H522
NCI/ADR-RES = tested on: NCI/ADR-RES
OVCAR-3 = tested on: OVCAR-3
OVCAR-4 = tested on: OVCAR-4
OVCAR-5 = tested on: OVCAR-5
OVCAR-8 = tested on: OVCAR-8
PC-3 = tested on: PC-3
RPMI-8226 = tested on: RPMI-8226
RXF 393 = tested on: RXF 393
SF-268 = tested on: SF-268
SF-295 = tested on: SF-295
SF-539 = tested on: SF-539
SK-MEL-28 = tested on: SK-MEL-28
SK-MEL-2 = tested on: SK-MEL-2
SK-MEL-5 = tested on: SK-MEL-5
SK-OV-3 = tested on: SK-OV-3
SN12C = tested on: SN12C
SNB-19 = tested on: SNB-19
SNB-75 = tested on: SNB-75
SNB-78 = tested on: SNB-78
SR = tested on: SR
SW-620 = tested on: SW-620
T47D = tested on: T47D
U-251 = tested on: U-251
UACC-257 = tested on: UACC-257
UACC-62 = tested on: UACC-62
UO-31 = tested on: UO-31
XF498 = tested on: XF498
HOP-92 = tested on: HOP-92
RXF 631 = tested on: RXF 631
TK-10 = tested on: TK-10

Structure (SMILES): COC(=O)C(CC(C)C)NC(=O)C(Cc1c[nH]cn1)NC(=O)CNC(=O)C(NC(=O)C(C)NC(=O)C(Cc1c[nH]c2ccccc12)NC(=O)C(CCC(=O)O)NC(=O)C(N)Cc1c(F)c(F)c(F)c(F)c1F)C(C)C (centres undefined) (H-[Phe(F5)]EWAVGHL-OMe; configuration not given here)
- GI50 (786-0): > 12.5 µM (inactive)
- GI50 (A498): > 12.5 µM (inactive)
- GI50 (A549): > 12.5 µM (inactive)
- GI50 (ACHN): > 12.5 µM (inactive)
- GI50 (CAKI-1): > 12.5 µM (inactive)
- GI50 (CCRF-CEM): > 12.5 µM (inactive)
- GI50 (COLO 205): > 12.5 µM (inactive)
- GI50 (DLD-1): > 100 µM (inactive)
- GI50 (DMS-114): > 100 µM (inactive)
- GI50 (DMS-273): > 100 µM (inactive)
- GI50 (DU-145): > 12.5 µM (inactive)
- GI50 (EKVX): > 12.5 µM (inactive)
- GI50 (HCC 2998): > 12.5 µM (inactive)
- GI50 (HCT-116): > 12.5 µM (inactive)
- GI50 (HCT-15): > 12.5 µM
- GI50 (HL-60): > 12.5 µM (inactive)
- GI50 (HOP-18): > 100 µM (inactive)
- GI50 (HOP-62): > 12.5 µM (inactive)
- GI50 (HT-29): > 12.5 µM (inactive)
- GI50 (Hs-578T): > 12.5 µM (inactive)
- GI50 (IGROV-1): > 12.5 µM (inactive)
- GI50 (K562): > 12.5 µM (inactive)
- GI50 (KM-20L2): > 100 µM (inactive)
- GI50 (KM12): > 12.5 µM (inactive)
- GI50 (LOX IMVI): > 12.5 µM (inactive)
- GI50 (LXFL 529): > 100 µM (inactive)
- GI50 (M14): > 12.5 µM (inactive)
- GI50 (M19-MEL): > 100 µM (inactive)
- GI50 (MCF7): > 12.5 µM (inactive)
- GI50 (MDA-MB-231): > 12.5 µM (inactive)
- GI50 (MDA-MB-435): > 12.5 µM (inactive)
- GI50 (MDA-N): > 12.5 µM (inactive)
- GI50 (MOLT-4): > 12.5 µM (inactive)
- GI50 (Malme-3M): > 12.5 µM (inactive)
- GI50 (NCI-H226): > 12.5 µM (inactive)
- GI50 (NCI-H23): > 12.5 µM (inactive)
- GI50 (NCI-H460): > 12.5 µM (inactive)
- GI50 (NCI-H522): > 12.5 µM (inactive)
- GI50 (NCI/ADR-RES): > 12.5 µM (inactive)
- GI50 (OVCAR-3): > 12.5 µM (inactive)
- GI50 (OVCAR-4): > 12.5 µM (inactive)
- GI50 (OVCAR-5): > 12.5 µM (inactive)
- GI50 (OVCAR-8): > 12.5 µM (inactive)
- GI50 (PC-3): > 12.5 µM (inactive)
- GI50 (RPMI-8226): > 12.5 µM (inactive)
- GI50 (RXF 393): > 12.5 µM (inactive)
- GI50 (SF-268): > 12.5 µM (inactive)
- GI50 (SF-295): > 12.5 µM (inactive)
- GI50 (SF-539): > 12.5 µM (inactive)
- GI50 (SK-MEL-28): > 12.5 µM (inactive)
- GI50 (SK-MEL-2): > 12.5 µM (inactive)
- GI50 (SK-MEL-5): > 12.5 µM (inactive)
- GI50 (SK-OV-3): > 12.5 µM (inactive)
- GI50 (SN12C): > 12.5 µM (inactive)
- GI50 (SNB-19): > 100 µM (inactive)
- GI50 (SNB-75): > 100 µM (inactive)
- GI50 (SNB-78): > 100 µM (inactive)
- GI50 (SR): > 12.5 µM (inactive)
- GI50 (SW-620): > 12.5 µM (inactive)
- GI50 (T47D): > 12.5 µM (inactive)
- GI50 (U-251): > 12.5 µM (inactive)
- GI50 (UACC-257): > 12.5 µM (inactive)
- GI50 (UACC-62): > 12.5 µM (inactive)
- GI50 (UO-31): > 12.5 µM (inactive)
- GI50 (XF498): > 100 µM (inactive)

Structure (SMILES): Cc1cc2c(c(C(N)=O)c1C)-c1ccccc1C2=O
- GI50 (786-0): > 100 µM (inactive)
- GI50 (A498): 51.4 µM (inactive)
- GI50 (A549): > 100 µM (inactive)
- GI50 (ACHN): > 100 µM (inactive)
- GI50 (CCRF-CEM): > 100 µM (inactive)
- GI50 (COLO 205): > 100 µM (inactive)
- GI50 (DLD-1): > 100 µM (inactive)
- GI50 (DMS-114): > 100 µM (inactive)
- GI50 (DMS-273): > 100 µM (inactive)
- GI50 (EKVX): > 100 µM (inactive)
- GI50 (HCC 2998): > 100 µM (inactive)
- GI50 (HCT-116): > 100 µM (inactive)
- GI50 (HCT-15): > 100 µM
- GI50 (HL-60): > 100 µM (inactive)
- GI50 (HOP-18): > 100 µM (inactive)
- GI50 (HOP-62): > 100 µM (inactive)
- GI50 (HOP-92): > 100 µM (inactive)
- GI50 (HT-29): > 100 µM (inactive)
- GI50 (IGROV-1): > 100 µM (inactive)
- GI50 (K562): > 100 µM (inactive)
- GI50 (KM-20L2): > 100 µM (inactive)
- GI50 (KM12): 2.42 µM (inactive)
- GI50 (LOX IMVI): > 100 µM (inactive)
- GI50 (LXFL 529): > 100 µM (inactive)
- GI50 (M14): > 100 µM (inactive)
- GI50 (M19-MEL): > 100 µM (inactive)
- GI50 (MOLT-4): > 100 µM (inactive)
- GI50 (Malme-3M): > 100 µM (inactive)
- GI50 (NCI-H23): > 100 µM (inactive)
- GI50 (NCI-H460): > 100 µM (inactive)
- GI50 (NCI-H522): > 100 µM (inactive)
- GI50 (OVCAR-3): > 100 µM (inactive)
- GI50 (OVCAR-4): > 100 µM (inactive)
- GI50 (OVCAR-5): > 100 µM (inactive)
- GI50 (OVCAR-8): > 100 µM (inactive)
- GI50 (RPMI-8226): > 100 µM (inactive)
- GI50 (RXF 393): > 100 µM (inactive)
- GI50 (RXF 631): > 100 µM (inactive)
- GI50 (SF-268): > 100 µM (inactive)
- GI50 (SF-295): > 100 µM (inactive)
- GI50 (SF-539): > 100 µM (inactive)
- GI50 (SK-MEL-28): > 100 µM (inactive)
- GI50 (SK-MEL-2): > 100 µM (inactive)
- GI50 (SK-OV-3): > 100 µM (inactive)
- GI50 (SN12C): > 100 µM (inactive)
- GI50 (SNB-19): > 100 µM (inactive)
- GI50 (SNB-75): 83.2 µM (inactive)
- GI50 (SNB-78): > 100 µM (inactive)
- GI50 (SW-620): > 100 µM (inactive)
- GI50 (TK-10): > 100 µM (inactive)
- GI50 (U-251): > 100 µM (inactive)
- GI50 (UACC-257): > 100 µM (inactive)
- GI50 (UACC-62): > 100 µM (inactive)
- GI50 (UO-31): > 100 µM (inactive)

— ChEMBL document CHEMBL1201862, “PubChem BioAssay data set” (2004)
